# Measurements reported in patent US20240190858A1, “CRYSTALLINE FORMS, PHARMACEUTICAL COMPOSITIONS AND METHODS OF USE THEREOF” (priority 2022, published 2024).
# How the values were obtained:
# [1] = system: MTAP-null NCI-H838 NSCLC CDX; assay: MTAP-null NCI-H838 NSCLC CDX model, combination with AGI-41998; assay type: in vivo; details: AGI-41998 at 10 mg/kg QD, minimum of 28 days
# Description: Briefly the groups were treated for a minimum of 28 days and tumor-volumes were monitored for the indicated time period.
# [2] = system: MTAP-null OCI-LY19 cell line tumors; assay: OCI-LY19 MTAP-null xenograft, switch from TNG908 to compound of Formula (I); assay type: in vivo, mice; details: 120 mg/kg BID
# Excerpt: The data is shown in FIG. 10A and FIG. 10B as mean±SEM. Regression is defined as final mean tumor volume <30% initial mean tumor volume.
# [3] = Oral pharmacokinetics in cynomolgus monkey; assay type: in vivo, cynomolgous monkeys; details: 3 mg/kg via oral gavage, n=3
# Excerpt: The dotted lines indicate the HAP1 MTAP-null and MTAP WT GI50s from a 7-day viability assay the compound. The data is presented as mean±SD.
compound,measurement,setting,value
AGI-41998,change in tumor volume,[1],increases in tumor volumes
Cc1cc(NC(=O)C(=O)N2C[C@@H](C)CC[C@@H]2c2ccc3scnc3c2)cnc1N [TNG908],tumor response under continuous dosing,[2],appear to have developed resistance
"CCc1cc(NC(=O)C(=O)N2C[C@@H](C)CC[C@@H]2c2ccc3sc(C4CCN(C)CC4)nc3c2)cnc1N [compound of Formula (I), N-(6-amino-5-ethylpyridin-3-yl)-2-((2R,5S)-5-methyl-2-(2-(1-methylpiperidin-4-yl)benzo[d]thiazol-5-yl)piperidin-1-yl)-2-oxoacetamide]",pharmacokinetic properties,[3],good pharmacokinetic properties
